Test results as given in BigSolDB 2.1.

Cc1c(C(=O)O)cccc1[N+](=O)[O-]
solubility (mole fraction)
Conditions | in 1,4-dioxane | in 2-butanone | in acetone | in acetonitrile | in ethanol | in ethyl acetate | in isopropanol | in methanol | in n-propanol
283.15 K | – | 0.0528 | 0.0601 | 0.00849 | 0.0149 | 0.0312 | 0.0129 | 0.0162 | 0.0111
285.65 K | 0.0704 | 0.0544 | 0.0614 | 0.00919 | 0.0165 | 0.0325 | 0.0145 | 0.018 | 0.0127
288.15 K | 0.0718 | 0.056 | 0.0627 | 0.00993 | 0.0186 | 0.0341 | 0.0164 | 0.0202 | 0.0144
290.65 K | 0.0734 | 0.0576 | 0.0641 | 0.0107 | 0.0207 | 0.0357 | 0.0184 | 0.0225 | 0.0162
293.15 K | 0.0749 | 0.0592 | 0.0655 | 0.0117 | 0.0232 | 0.0373 | 0.0206 | 0.0255 | 0.0182
295.65 K | 0.0764 | 0.0609 | 0.0668 | 0.0127 | 0.0259 | 0.039 | 0.023 | 0.0286 | 0.0205
298.15 K | 0.0779 | 0.0626 | 0.0684 | 0.0138 | 0.0286 | 0.0406 | 0.0259 | 0.0319 | 0.0231
300.65 K | 0.0796 | 0.0645 | 0.0699 | 0.0149 | 0.0317 | 0.0423 | 0.0289 | 0.0354 | 0.0258
303.15 K | 0.0814 | 0.0664 | 0.0715 | 0.0161 | 0.0351 | 0.0442 | 0.0324 | 0.0392 | 0.0291
305.65 K | 0.0831 | 0.0683 | 0.0728 | 0.0172 | 0.0388 | 0.046 | 0.0362 | 0.0436 | 0.0326
308.15 K | 0.0847 | 0.0703 | 0.0745 | 0.0186 | 0.043 | 0.0478 | 0.0396 | 0.0483 | 0.0365
310.65 K | 0.0865 | 0.0722 | 0.0761 | 0.0199 | 0.0475 | 0.0499 | 0.0438 | 0.0529 | 0.0404
313.15 K | 0.0884 | 0.0741 | 0.0777 | 0.0211 | 0.0524 | 0.0518 | 0.0485 | 0.0579 | 0.0455
315.65 K | 0.0902 | 0.0764 | 0.0793 | 0.0226 | 0.0579 | 0.054 | 0.0533 | 0.0634 | 0.0506
318.15 K | 0.0921 | 0.0786 | 0.0808 | 0.0242 | 0.064 | 0.056 | 0.0587 | 0.0685 | 0.0556
